According to patent US20030199514A1, “Methods for improving efficacy of treatment with growth hormone secretagogues” (priority 2002, published 2003):

System: urinary nitrogen excretion
Test: Phase I double-blind, placebo-controlled, multiple dose evaluation of test compound in calorically restricted, obese men and women
Format: in vivo, human
Conditions: obese subjects on caloric-restricted diet, 3 mg po tid, 6 mg po tid or 10 mg po qam for seven days
Protocol: Phase I Double-Blind, Placebo-Controlled, Multiple Dose Evaluation of Test Compound in Calorically Restricted, Obese Men and Women
A total of 48 obese subjects, with a negative exercise tolerance test and without significant other medical problems, were recruited for this study and placed on a caloric-restricted diet. Subjects were randomized to either placebo, 3 mg po tid, 6 mg po tid or 10 mg po qam of the test compound, 2-amino-N-[2-(3a-(R)-benzyl-2-methyl-3-oxo-2,3,3a,4,6,7-hexahydro-pyrazolo[4,3-c]pyridin-5-yl)-1-(R)-benzyloxymethyl-2-oxo-ethyl]-isobutyramide, L-tartrate, for a total of seven days.
The primary efficacy outcome variable of this study was urinary nitrogen excretion. Breakdown of protein (protein catabolism) may be measured by urinary nitrogen excretion. The covariates determined in this study included: 1.) gender; 2.) serum total and free testosterone; and 3.) serum total and free estradiol.

CN1N=C2CCN(C(=O)[C@@H](COCc3ccccc3)NC(=O)C(C)(C)N)C[C@@]2(Cc2ccccc2)C1=O.O=C(O)C(O)C(O)C(=O)O [test compound, 2-amino-N-[2-(3a-(R)-benzyl-2-methyl-3-oxo-2,3,3a,4,6,7-hexahydro-pyrazolo[4,3-c]pyridin-5-yl)-1-(R)-benzyloxymethyl-2-oxo-ethyl]-isobutyramide, L-tartrate]
effect on urinary nitrogen (excretion) (men): manifest in men
effect on urinary nitrogen (excretion) (women): modest effects of treatment in women
